Measurements published in US11015223B2, “Methods for determining response to a hypomethylating agent” (THE REGENTS OF THE UNIVERSITY OF CALIFORNIA, priority 2013, dated 2021).
Values joined by “and” are separate entries in the source; they are usually repeats but may differ in a detail not shown here. Equal entries are not always repeated.

Columns and labels:
[1] = test system: MDS patients; assay: Response to treatment by IWG response criteria revised in 2006 (CR/PR/HI = responders); assay type: in vivo, human; details: for Non-Responders (NR/SD/PD/Died/NE) (%) / Non-Responders (NR/SD/PD/Died/NE) N / Responders (CR/PR/HI) (%) / Responders (CR/PR/HI) N: all patients on the treatment
Description: A total of 213 MDS patients treated azacitidine or decitabine were included in this study. Samples were obtained from patients treated at the Dana-Farber Cancer Institute (n=42), the MD Anderson Cancer Center (n=104), and as part of the DACO-020 (ADOPT) clinical trial of decitabine (n=67). All samples were collected with patient consent under IRB-approved protocols in accordance with the Declaration of Helsinki. There were no significant differences in baseline patient characteristics by treatment site (Table 1).
Response to treatment was assessed using IWG response criteria revised in 2006. Patients with either a complete response (CR), partial response (PR), or hematologic improvement (HI) were considered as ‘responders’ (R, n=100, 47%). whereas patients described as having ‘no response’, ‘stable disease’, ‘progressive disease’, ‘death’ before response assessment, or ‘not evaluable’ were considered ‘non-responders’ (NR, […], 53%).
Categorical variables were compared using a Fisher exact test, while continuous variables were compared using a Wilcoxon rank-sum test. A Cochran-Mantel-Haenszel (CMH) test was used to test for differences in response rate by mutational status controlling for treatment. Unadjusted and adjusted logistic regression models were used to predict response to therapy. A stepwise algorithm for logistic regression was also utilized to determine a final model; candidate variables considered for inclusion were all mutations, treatment, IPSS classification, age, and sex. The Hosmer and Lemeshow goodness-of-fit test was used to assess model fit for logistic regression models. Overall survival was calculated from the time of treatment to the time of death from any cause or was censored at the date last known alive. Unadjusted and adjusted Cox regression models were constructed for overall survival. A stepwise regression algorithm for Cox regression models was used including the same candidate variables as in the logistic regression modeling. Classification trees were also created using the Rpart package in R version 2.11.1 to classify responders based on mutational status. Cross-validation was used for tree pruning. All p-values reported are two-sided and considered significant at the 0.05 level. No adjustments were made for multiple hypothesis testing.

[2] = test system: MDS patients; details: cited from earlier work
[3] = Peripheral blood CBC of recipient mice in competitive murine bone marrow transplant; assay type: in vivo
Protocol: (§1) Age-matched Tet2^−/−; Mx-Cre^+ and Tet2^+/+; Mx-Cre^+ donor animals (CD45.2) were treated with pIpC (15 μg/g IP) for three non-consecutive days to induce excision of exon 3 of Tet2. Donor bone marrow was harvested two weeks post-pIpC and mixed in a 1:2 ratio with bone marrow harvested from 45.1 WT donors (B6.SJL-Ptprca Pepcb/BoyJ; Jackson), and was then transplanted into 45.1 recipients for a total of 1 million cells/recipient. Peripheral blood engraftment was assessed by FACS at two weeks post-transplant, at which point recipient mice were divided into treatment groups (n=7 per group) and treated with either 5-azacitidine (aza; 2.5 mg/kg IP; Santa Cruz Biotechnology) or vehicle control on the following schedule: two weeks on, two weeks off. Peripheral blood chimerism and CBC were assessed following each round of treatment. Percent 45.2 chimerism was calculated for each time point. Error bars indicate standard error of the mean (SEM) for each group, and p-values for the last time point were calculated using an unpaired two-sample t-test.
The observed association between TET2 mutations and response to treatment could be mediated directly by TET2 loss-of-function or by indirect or cell extrinsic effects. To test whether TET2 loss-of-function can sensitize cells to hypomethylating agents, we performed a competitive murine bone marrow transplant experiment using hematopoietic cells from Tet2-null and wildtype littermate donors. […] There was no difference in pretreatment peripheral blood counts between groups. Treatment with AZA (2.5 mg/kg M-F×2 weeks) or vehicle was begun on day 20 post-transplant and repeated starting on day 48.

[4] = test system: Tet2-null cells; assay: Competitive murine bone marrow transplant, percent 45.2 chimerism in peripheral blood; assay type: in vivo
Protocol: as §1
The observed association between TET2 mutations and response to treatment could be mediated directly by TET2 loss-of-function or by indirect or cell extrinsic effects. […]

[5] = 2.5 mg/kg M-F x 2 weeks, regardless of genotype, vs vehicle
[6] = murine bone marrow transplant experiment

## Decitabine+
[1]
  Non-Responders (NR/SD/PD/Died/NE) (%): (56) %
  Non-Responders (NR/SD/PD/Died/NE) N: 15 N
  Responders (CR/PR/HI) (%): (44) %
  Responders (CR/PR/HI) N: 12 N
[1]; listed as Dec Plus
  Responders (CR/PR/HI) (%): 44%
[1]; patients with ASXL1 mutation
  Response (%): 50%
  Response N: 3 N
[1]; patients with ATRX mutation
  Response (%): 100%
  Response N: 1 N
[1]; patients with BCOR mutation
  Response (%): 50%
  Response N: 1 N
[1]; patients with CBL mutation
  Response (%): 0 (0) %
  Response N: 0 (0) N
[1]; patients with DNMT3A mutation
  Response (%): 67%
  Response N: 4 N
[1]; patients with ETV6 mutation
  Response (%): 0 (0) %
  Response N: 0 (0) N
[1]; patients with EZH2 mutation
  Response (%): 0 (0) %
  Response N: 0 (0) N
[1]; patients with IDH1 mutation
  Response (%): 0 (0) %
  Response N: 0 (0) N
[1]; patients with IDH2 mutation
  Response (%): 0 (0) %
  Response N: 0 (0) N
[1]; patients with JAK2 mutation
  Response (%): 0 (0) %
  Response N: 0 (0) N
[1]; patients with KDM3A mutation
  Response (%): 0 (0) %
  Response N: 0 (0) N
[1]; patients with KDM6B mutation
  Response (%): 100%
  Response N: 3 N
[1]; patients with KRAS mutation
  Response (%): 0 (0) %
  Response N: 0 (0) N
[1]; patients with MAML1 mutation
  Response (%): 75%
  Response N: 3 N
[1]; patients with NF1 mutation
  Response (%): 50%
  Response N: 1 N
[1]; patients with NOTCH1 mutation
  Response (%): 0 (0) %
  Response N: 0 (0) N
[1]; patients with NOTCH2 mutation
  Response (%): 100%
  Response N: 5 N
[1]; patients with NPM1 mutation
  Response (%): 100%
  Response N: 1 N
[1]; patients with NRAS mutation
  Response (%): 50%
  Response N: 1 N
[1]; patients with PHF6 mutation
  Response (%): 0 (0) %
  Response N: 0 (0) N
[1]; patients with PRPF8 mutation
  Response (%): 0 (0) %
  Response N: 0 (0) N
[1]; patients with PTPN11 mutation
  Response (%): 67%
  Response N: 2 N
[1]; patients with RUNX1 mutation
  Response (%): 75%
  Response N: 3 N
[1]; patients with SCAF11 mutation
  Response (%): 100%
  Response N: 2 N
[1]; patients with SF3B1 mutation
  Response (%): 50%
  Response N: 2 N
[1]; patients with SRSF2 mutation
  Response (%): 50%
  Response N: 2 N
[1]; patients with TET2 mutation
  Response (%): 80%
  Response N: 4 N
[1]; patients with TLR1 mutation
  Response (%): 67%
  Response N: 2 N
[1]; patients with TP53 mutation
  Response (%): 42%
  Response N: 5 N
[1]; patients with U2AF1 mutation
  Response (%): 0 (0) %
  Response N: 0 (0) N
[1]; patients with ZRSR2 mutation
  Response (%): 0 (0) %
  Response N: 0 (0) N

## Nc1ncn([C@@H]2O[C@H](CO)[C@@H](O)[C@H]2O)c(=O)n1 [azacitidine, 5-azacytidine]
[2]; TET2 mutations detected by Sanger sequencing
  MDS patients with TET2 mutations who responded to treatment: 11 of 13
[2]; overall cohort of 86 patients
  response rate: 52%
[3]; [5]
  WBC levels: significant decreases
  hematocrit: significant decreases
[3]; [6]
  total number of mature granulocytes: increasing
[4]; Tet2-null cells, after two cycles, 2.5 mg/kg IP
  level of representation in peripheral blood: significantly decreased level of representation
[4]; [6]
  clonal advantage associated with loss of Tet2 function: preferentially decreased
[1]
  Non-Responders (NR/SD/PD/Died/NE) (%): (52) %
  Non-Responders (NR/SD/PD/Died/NE) N: 22 N
  Responders (CR/PR/HI) N: 20 N
[1]; listed as Azacitidine Alone
  Responders (CR/PR/HI) (%): (48) %
[1]; patients with ASXL1 mutation
  Response N: 11 N
[1]; patients with ATRX mutation, listed as Aza Alone
  Response N: 0 (0) N and 0 N
[1]; patients with BCOR mutation
  Response N: 2 N
[1]; patients with CBL mutation
  Response N: 1 N
[1]; patients with DNMT3A mutation
  Response N: 3 N
[1]; patients with ETV6 mutation
  Response N: 2 N
[1]; patients with EZH2 mutation
  Response N: 3 N
[1]; patients with IDH1 mutation
  Response N: 1 N
[1]; patients with IDH2 mutation
  Response N: 2 N
[1]; patients with JAK2 mutation
  Response N: 2 N
[1]; patients with KDM3A mutation, listed as Aza Alone
  Response N: 0 (0) N and 0 N
[1]; patients with KDM6B mutation
  Response N: 1 N
[1]; patients with KRAS mutation
  Response N: 1 N
[1]; patients with MAML1 mutation, listed as Aza Alone
  Response N: 0 (0) N and 0 N
[1]; patients with NF1 mutation
  Response N: 2 N
[1]; patients with NOTCH1 mutation
  Response N: 2 N
[1]; patients with NOTCH2 mutation
  Response N: 2 N
[1]; patients with NPM1 mutation, listed as Aza Alone
  Response N: 0 (0) N and 0 N
[1]; patients with NRAS mutation
  Response N: 3 N
[1]; patients with PHF6 mutation
  Response N: 1 N
[1]; patients with PRPF8 mutation
  Response N: 1 N
[1]; patients with PTPN11 mutation, listed as Aza Alone
  Response N: 0 (0) N and 0 N
[1]; patients with RUNX1 mutation
  Response N: 3 N
[1]; patients with SCAF11 mutation
  Response N: 1 N
[1]; patients with SF3B1 mutation
  Response N: 3 N
[1]; patients with SRSF2 mutation
  Response N: 3 N
[1]; patients with TET2 mutation
  Response N: 6 N
[1]; patients with TLR1 mutation, listed as Aza Alone
  Response N: 0 (0) N and 0 N
[1]; patients with TP53 mutation
  Response N: 6 N
[1]; patients with U2AF1 mutation
  Response N: 4 N
[1]; patients with ZRSR2 mutation
  Response N: 1 N
